Usually inhibition stands for the drop in the measured response relative to a control, in per cent.

Results on 19 compounds are retold here after patent publication US20050014942A1, “Amide derivatives and drugs” (priority 2001, published 2005).

The subject of the assay is collagen production induced by TGF-β (NHDF cells). The assay is described as follows: Inhibitory effect on collagen production induced by TGF-β, [3H] proline uptake (NHDF cells). The conditions noted are these: TGF-β1 3 ng/ml; for inhibition at 1 µM / inhibition at 3 µM / inhibition at 10 µM: Homo sapiens, NHDF. The class given is cell-based, human. How it is done:
As an index of collagen production, the uptake of [^3H] proline was measured.
Using a 96-well microplate, normal human skin derived fibroblast (NHDF, 10^4/well) or human embryonic lung fibroblast (TIG-3, 10^4/well) were cultured in a 10% fetal calf serum (FCS)-containing Dulbecco's modified Eagle medium (DMEM) for one day. After removing the culture supernatant, the cells were washed once with a 0.1% bovine serum albumin (BSA)-containing DMEM medium and then cultured in the 0.1% bovine serum albumin (BSA)-containing DMEM medium for one day. After adding each of the test compounds in each concentration (1, 3, 10 μM), the cells were cultured and, after adding TGF-β1 (3 ng/ml) and [^3H] proline (18.5 kBq/well), the cells were further cultured for additional one day.
After removing the culture supernatant, the cells were washed twice with a phosphate buffer solution (PBS) and dissolved with 0.3M NaOH and 1% sodium dodecylsulfate (SDS), and then each protein fraction was precipitated with trichloroacetic acid (TCA) After the precipitate was filtered through a glass filter (GF/B) and washed, the quantity of [^3H] proline on the glass filter was measured by a liquid scintillation counter. The number of cells was measured by a cell growth measuring kit (XTT, Roche) and the uptake of [^3H] proline was corrected by the number of cells. Inhibitory ratio was calculated as compared with the case where a difference between the uptake of [^3H] proline with or without TGF-β1.

Counter-ions that a name gives are not always drawn.

As to `CC(=O)OCCN(Cc1ccccc1)C(=O)c1cnc(N2CCN(C(=O)c3c(-c4ccccc4)n(C)c4ccc(C)cc34)CC2)cn1` [Example 125, N-benzyl-N-[(5-{4-[(1,5-dimethyl-2-phenyl-1H-indol-3-yl)carbonyl]piperazin-1-yl}pyrazin-2-yl)carbonyl]aminoethyl acetate], where the note is “1 μM”, the inhibition at 1 µM amounted to 52%. Also, for the setting “3 μM”, the inhibition at 3 µM amounted to 91%.
The matching figures for `COc1cc2c(cc1OC)CN(C(=O)/C=C/c1c(-c3ccc(F)cc3)n(C)c3ncccc13)CC2` [Example 140, 2-{(2E)-3-[1-methyl-2-(4-fluorophenyl)-1H-pyrrolo[2,3-b]pyridin-3-yl]prop-2-enoyl}-6,7-dimethoxy-1,2,3,4-tetrahydroisoquinoline hydrochloride]: 140% and 171%.
As for `Cn1c(-c2ccc3c(c2)OCO3)c(/C=C/C(=O)N(CCCCO)Cc2ccccc2)c2ccccc21` [Example 116, (2E)-N-(4-hydroxybutyl)-N-benzyl-3-[1-methyl-2-(3,4-methylenedioxyphenyl)-1H-indol-3-yl]acrylamide], the inhibition at 10 µM was 168%. Where the note is “3 μM”, the inhibition at 3 µM stood at 76%.
Taken in the same sequence, the figures for `CC1c2cc(O)c(O)cc2CCN1C(=O)/C=C/c1c(-c2ccc3c(c2)OCO3)n(C)c2ccccc12` (centres unmarked) [Example 114, 2-{(2E)-3-[1-methyl-2-(3,4-methylenedioxyphenyl)-1H-indol-3-yl]prop-2-enoyl}-1-methyl-6,7-dihydroxy-1,2,3,4-tetrahydroisoquinoline] were 165% and 94%.
On to `COc1cc2c(cc1OC)CN(C(=O)/C=C/c1c(-c3ccccc3)[nH]c3ncccc13)CC2` [Example 138, 6,7-dimethoxy-2-[(2E)-3-(2-phenyl-1H-pyrrolo[2,3-b]pyridin-3-yl)prop-2-enoyl]-1,2,3,4-tetrahydroisoquinoline dihydrochloride], for which the inhibition at 1 µM (1 μM) is 65%. Besides, the inhibition at 3 µM (3 μM) is 53%.
In the case of `Cn1c(-c2ccc3c(c2)OCO3)c(/C=C/C(=O)N[C@@H]2c3ccccc3C[C@@H]2O)c2ccccc21` [Example 113, (2E)-N-[(1R,2S)-2-hydroxy-2,3-dihydro-1H-inden-1-yl]-3-[1-methyl-2-(3,4-methylenedioxyphenyl)-1H-indol-3-yl]acrylamide], the inhibition at 10 µM came out at 148%. Moreover, the inhibition at 3 µM (3 μM) worked out at 88%.
On to `CCOC(=O)C1CCCC1NC(=O)/C=C/c1c(-c2ccccc2)n(C)c2ncccc12` (centres unmarked) [Example 126, Ethyl 2-{N-[(2E)-3-(1-methyl-2-phenyl-1H-pyrrolo[2,3-b]pyridin-3-yl)prop-2-enoyl]amino}-1-cyclopentanecarboxylate], for which the inhibition at 1 µM (1 μM) turned out to be 29%. The inhibition at 3 µM (3 μM) is 86%.
Taken in the same sequence, the figures for `COc1cc2c(cc1OC)CN(C(=O)/C=C/c1c(-c3ccccc3)n(C)c3cccnc13)CC2` [Example 136, 2-[(2E)-3-(1-methyl-2-phenyl-1H-pyrrolo[3,2-b]pyridin-3-yl)prop-2-enoyl]-6,7-dimethoxy-1,2,3,4-tetrahydroisoquinoline hydrochloride] were 66% and 111%.
Turning to `COc1ccc(N2CCN(C(=O)/C=C/c3c(-c4ccccc4)n(C)c4ncccc34)CC2)cc1` [Example 98, 1-[(2E)-3-(1-methyl-2-phenyl-1H-pyrrolo[2,3-b]pyridin-3-yl)prop-2-enoyl]-4-(4-methoxyphenyl)piperazine], the inhibition at 1 µM (1 μM) came to 47%. For the setting “3 μM”, the inhibition at 3 µM was determined as 92%.
Taken in the same sequence, the figures for `Cn1c(-c2ccccc2)c(/C=C/C(=O)N(CCc2cccs2)CC(=O)O)c2cccnc21` [Example 137, N-[(2E)-3-(1-methyl-2-phenyl-1H-pyrrolo[2,3-b]pyridin-3-yl)prop-2-enoyl]-N-[2-(2-thienyl)ethyl]aminoacetic acid] were 38% and 72%.
Taken in the same sequence, the figures for `CC(=O)C1(c2ccccc2)CCN(C(=O)C=Cc2c(-c3ccc(C(=O)O)cc3)n(C)c3ccc(C)cc23)CC1` [Example 146, 4-{3-[3-(4-acetyl-4-phenylpiperidin-1-yl)-3-oxo-1-propenyl]-1,5-dimethyl-1H-indol-2-yl}benzoic acid] were 43% and 60%.
Turning to `COc1ccc(-c2c(/C=C/C(=O)N3CCc4cc(OC)c(OC)cc4C3)c3cccnc3n2C)cc1OC` [Example 131, 2-{(2E)-3-[1-methyl-2-(3,4-dimethoxyphenyl)-1H-pyrrolo[2,3-b]pyridin-3-yl]prop-2-enoyl}-6,7-dimethoxy-1,2,3,4-tetrahydroisoquinoline hydrochloride], the inhibition at 1 µM (1 μM) was found to be 96%. Further, the inhibition at 3 µM (3 μM) came to 141%.
Taken in the same sequence, the figures for `COc1cc2c(cc1OC)CN(C(=O)/C=C/c1c(-c3ccccc3)n(C)c3cnccc13)CC2` [Example 130, 2-[(2E)-3-(1-methyl-2-phenyl-1H-pyrrolo[2,3-c]pyridin-3-yl)prop-2-enoyl]-6,7-dimethoxy-1,2,3,4-tetrahydroisoquinoline hydrochloride] were 92% and 157%.
`COc1cc2c(cc1OC)C(CC(=O)O)N(C(=O)/C=C/c1c(-c3ccccc3)n(C)c3ncccc13)CC2.Cl` (centres unmarked) [Example 134, {6,7-dimethoxy-2-[(2E)-3-(1-methyl-2-phenyl-1H-pyrrolo[2,3-b]pyridin-3-yl)prop-2-enoyl]-1,2,3,4-tetrahydroisoquinolin-1-yl}acetic acid hydrochloride]: the “Inhibitory effect on collagen production induced by TGF-β (% inhibition)” value is given as 90% (1 μM) and 111% (3 μM).
Consider `COc1cccc(-c2c(/C=C/C(=O)N(C)CCC(O)c3ccccc3)c3ccccc3n2C)c1` (centres unmarked) [Example 118, (2E)-N-methyl-N-(3-hydroxy-3-phenylpropyl)-3-[1-methyl-2-(3-methoxyphenyl)-1H-indol-3-yl]acrylamide], for which the inhibition at 10 µM was determined as 147%. The inhibition at 3 µM (3 μM) is 81%.
For the compound `Cc1ncsc1CCNC(=O)c1cnc(N2CCN(C(=O)c3c(-c4ccccc4)n(C)c4ccc(Br)cc34)CC2)cn1` [Example 144, 5-{4-[(5-bromo-1-methyl-2-phenyl-1H-indol-3-yl)carbonyl]piperazin-1-yl}-N-[2-(4-methyl-1,3-thiazol-5-yl)ethyl]pyrazine-2-carboxamide hydrochloride], for the setting “1 μM”, the inhibition at 1 µM came to 78%. For the same compound, the inhibition at 3 µM (3 μM) worked out at 85%.
Consider `COc1cccc2c(/C=C/C(=O)N(C)CCC(O)c3ccccc3)c(-c3ccccc3)n(C)c12` (centres unmarked) [Example 111, (2E)-N-methyl-N-(3-hydroxy-3-phenylpropyl)-3-(1-methyl-2-phenyl-7-methoxy-1H-indol-3-yl)acrylamide], for which the inhibition at 10 µM came to 168%. Also, the inhibition at 3 µM (3 μM) was 82%.
Taken in the same sequence, the figures for `COc1ccc(-c2c(/C=C/C(=O)N(C)CCC(O)c3ccccc3)c3ccccc3n2C)cc1` (centres unmarked) [Example 119, (2E)-N-methyl-N-(3-hydroxy-3-phenylpropyl)-3-[1-methyl-2-(4-methoxyphenyl)-1H-indol-3-yl]acrylamide] were 153% and 75%.
Consider `Cc1ccc2c(c1)c(C(=O)N1CCN(c3cnc(C(=O)N(C)[C@@H](Cc4ccccc4)C(=O)O)cn3)CC1)c(-c1ccccc1)n2C` [Example 132, N-methyl-N-[(5-{4-[(1,5-dimethyl-2-phenyl-1H-indol-3-yl)carbonyl]piperazin-1-yl}pyrazin-2-yl)carbonyl]-(S)-phenylalanine], for which, for the setting “1 μM”, the inhibition at 1 µM came to 67%. The inhibition at 3 µM (3 μM) stood at 122%.
